15 compounds from patent US6337397B1, “Pyrimidine derivatives and their salts, useful for making benzoxazepine derivatives” (Suntory Limited, priority 1995, dated 2002) can be followed below.

Molecules are shown by their SMILES. Read-outs that look alike come from different tables or passages of the source.

The test system of one experiment is male Wistar rats. Kind of experiment: Anticonflict action, NaCl-Lick conflict method. It counts as in vivo. The note with it: Rattus norvegicus, po, 1 hour before the test; number of licks in 5 minutes of 2% saline; rats deprived of water for 48 hours; read-out: Minimum effective dosage. As for the experimental part:
The anticonflict action of the compounds of the general formulae (I), (II), and (III) was evaluated in accordance with the NaCl-Lick conflict method of Tanga et al. (Pharmacol., Biochem., Behav., vol. 32, pp. 773-776, 1989). That is, six-week old male Wistar rats in groups of six to 10 were deprived of water for 48 hours and placed in an experimental apparatus placed in a soundproof box (apparatus made of acrylic resin, 20×20×30 cm, provided with a drinking outlet having a diameter of 1 cm at height of 8 cm from the floor, designed to be able to measure the number of drops per unit hour by a drinkometer), and the anticonflict action of the medicament was evaluated using as an indicator the number of drops (number of licks) in 5 minutes from the start of drinking of 2% saline. The tested medicament was orally administered in an amount of 0.2 ml/100 g body weight 1 hour before the start of the test.

For the next experiment, the target named is T1, dopamine D2 receptor (Rattus norvegicus, UniProt P61169).
T1 construct: the corpus striatums excised from male Wistar rats were homogenized; from tissue; host or cells: rat corpus striatum membrane homogenate
T1 sequence (P61169 whole entry): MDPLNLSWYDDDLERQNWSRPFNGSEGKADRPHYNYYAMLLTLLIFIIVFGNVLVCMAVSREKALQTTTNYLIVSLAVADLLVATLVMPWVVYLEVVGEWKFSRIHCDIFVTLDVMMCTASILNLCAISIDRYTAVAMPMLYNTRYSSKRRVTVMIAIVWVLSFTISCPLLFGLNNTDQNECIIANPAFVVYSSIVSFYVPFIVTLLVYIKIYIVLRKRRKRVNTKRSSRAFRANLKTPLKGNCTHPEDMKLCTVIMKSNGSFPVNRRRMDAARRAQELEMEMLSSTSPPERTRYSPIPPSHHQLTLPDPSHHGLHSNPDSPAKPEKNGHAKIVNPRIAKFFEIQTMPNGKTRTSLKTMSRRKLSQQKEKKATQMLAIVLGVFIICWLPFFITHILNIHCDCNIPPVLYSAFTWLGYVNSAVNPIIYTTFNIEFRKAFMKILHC
Kind of experiment: Affinity with dopamine D2 receptor, [3H]Raclopride binding. On the set-up: species or system male Wistar rats. As to conditions: 1.0 nM [3H]Raclopride, rat corpus striatum preparation, 25° C., 60 minutes. As to the method:
The affinity of the compounds of the general formulas (I), (II), and (III) with a dopamine D2 receptor was evaluated in accordance with the method of Kakohler et al. (Biochem. Pharmacol., vol. 34, pp. 2251-2259, 1985). That is, the corpus striatums excised from male Wistar rats were homogenized with the addition of 120 mM sodium chloride, 5 mM potassium chloride, 2 mM calcium chloride, 1 mM magnesium chloride, and 0.01% ascorbic acid contained in 50 mM tris-phosphate buffer (pH 7.7). The homogenate was centrifuged at […] and 35000×g for 10 minutes. The same buffer was added to the resultant precipitate,then this was homogenized again and was similarly centrifuged to obtain the precipitate. The same buffer was added to this precipitate which was then again homogenized to prepare the dopamine D2 receptor.
For the binding experiment, use was made of 1.0 nM of [3H]3,5-dichloro-N-[(1-ethyl-2-pyrrolidinyl)methyl]-6-hydroxy-o-anisamide (Raclopride), various concentrations of test samples were added to a system of 0.34 mg/ml of protein or a total of 0.25 ml, incubation was performed at 25° C. for 60 minutes, then the radioactivity was measured in the same way as in the Evaluation Example 1 to find the degree of binding.
The 50% inhibiting concentration of binding affinity (IC50) was calculated from the degrees of binding at various concentrations of the added samples. […] The IC50 values of typical compounds are shown together with the IC50 values for the serotonin receptor.

In experiment [1] the target is T2, serotonin 5-HT1A receptor (Rattus norvegicus, UniProt P19327).
T2 construct: the hippocampuses extracted from male Wistar rats were homogenized; from tissue; host or cells: rat hippocampus membrane homogenate
T2 sequence (P19327 1-422): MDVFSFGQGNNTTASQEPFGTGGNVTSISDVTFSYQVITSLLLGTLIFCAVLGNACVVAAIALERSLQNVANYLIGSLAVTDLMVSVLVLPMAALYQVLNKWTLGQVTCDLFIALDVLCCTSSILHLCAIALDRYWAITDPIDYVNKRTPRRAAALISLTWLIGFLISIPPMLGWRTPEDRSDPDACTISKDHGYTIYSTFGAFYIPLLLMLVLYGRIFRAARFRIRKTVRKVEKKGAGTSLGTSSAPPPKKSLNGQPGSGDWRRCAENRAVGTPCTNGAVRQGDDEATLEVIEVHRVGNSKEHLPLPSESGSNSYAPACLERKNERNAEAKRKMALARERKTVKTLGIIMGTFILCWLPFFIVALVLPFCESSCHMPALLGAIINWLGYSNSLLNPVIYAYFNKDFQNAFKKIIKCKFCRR
Kind of experiment: Affinity with serotonin receptor, [3H]8-OH-DPAT binding. Set-up: species or system male Wistar rats. As to conditions: for D2/5-HT1A: ratio of IC50 (D2) to IC50 (5-HT1A). As for the experimental part:
The affinity of the compounds of the general formulas (I), (II), and (III) with a serotonin receptor was evaluated in accordance with the method of S. T. Peuroutka et al. (J. Neurochem., vol. 47, pp. 529-540, 1986). That is, the hippocampuses extracted from male Wistar rats were homogenized while adding 50 mM tris-phosphate buffer (pH 7.7). The homogenate was centrifuged at […] and 40000×g for 10 minutes. The same buffer was added to the obtained precipitate, then this was homogenized again and was similarly centrifuged to obtain the precipitate. This homogenization-centrifugation operation was repeated two times to obtain a final precipitate to which was then added 10 uM of N-methyl-N-2-propynylbenzylamine (Pargyline), 4 mM of calcium chloride, and 0.1% ascorbic acid contained in a 50 mM tris-phosphate buffer (ph 7.7). This was then homogenized to prepare the serotonin receptor.
For the binding experiment, 0.4 nM of [3H]2-di-n-propylamino-8-hydroxy-1,2,3,4-tetrahydronapthalene (8-DPAT; 8-hydroxy-N,N-dipropyl-2-aminotetetrilin) was used, various concentrations of test samples were added to a system of 0.25 mg/ml of protein or a total of 0.25 ml, and these were incubated at 25° C. for 30 minutes. A Whatman GF/C filter was used to filter each of the reaction solutions, then the filter was washed by 20 mM tris-phosphate buffer (pH 7.7). The serotonin receptor was trapped by the filter and the radio activity of the 8-OH-DAPT bonded to it was measured to find the degree of binding. The 50% inhibiting concentration of binding affinity (IC50) was calculated from the degrees of binding in the various sample concentrations. […] The IC50 values of typical compounds are shown together with the IC50 values with respect to the dopamine D2 receptor.

The test system of another experiment is Wistar male rats. Nature of the experiment: Ischemic brain tissue damage, transient right middle cerebral artery occlusion (MCAO) model. It counts as in vivo. The note with it: Rattus norvegicus, sc, 240 h; s.c., immediately after occlusion; 60 minutes occlusion; brain tissue damage 10 days after restart of blood flow (number of benzodiazepine bindings); read-out: Minimum effective dosage. As for the experimental part:
The evaluation of the efficacy on ischemic brain damage of the compounds of the general formulae (I), (II), and (III) was performed using the transient right middle cerebral artery occlusion (MCAO) model of Koizumi et al. (Jap. J. Stroke, vol. 8, pp. 1 to 8, 1986). That is, 10 to 11 week old Wistar male rats were used and the right middle cerebral artery was temporarily obstructed for 60 minutes. 10 days after the restart of the blood flow, the brains were excised and the degree of brain tissue damage of the cerebral cortex and corpus striatum of the obstructed side were evaluated by the damage marker of the number of benzodiazepine bindings. The tested drugs were dissolved in physiological saline and administered subcutaneously at the backs of the rats immediately after the right middle cerebral artery occlusion. As a control, physiological saline of […] body weight was similarly administered.

[2] abbreviates: 0.4 nM [3H]8-OH-DPAT, rat hippocampus preparation, 25° C., 30 minutes, read-out: IC50 (5-HT1A).

`CCC1=COc2ccccc2C(=O)N1CCCCN1CCN(c2ccccn2)CC1` [Example 36, 4,5-dihydro-3-ethyl-4-(4-(4-(2-pyridyl)piperazin-1-yl)butyl)-1,4-benzoxazepin-5-one]: the minimal effective dose in the experiment with male Wistar rats turned out to be 30 mg/kg.

As to `CC1=COc2ccc(F)cc2C(=O)N1CCCCN1CCN(c2cccc(Cl)n2)CC1` [Example 41, 4-(4-(4-(2-chloropyridin-6-yl)piperazin-1-yl)butyl)-4,5-dihydro-7-fluoro-3-methyl-1,4-benzoxazenin-5-one], the IC50 at dopamine D2 receptor is 266 nM; in experiment [1] (setting [2]), 1.7 nM. In experiment [1], the D2/5-HT1A turned out to be 156. In addition, the minimal effective dose in the experiment with male Wistar rats is 10 mg/kg.

`O=C1c2ccccc2OC=C(Cl)N1CCCCN1CCN(c2ncnc3ccccc23)CC1` [Example 47, 3-chloro-4,5-dihydro-4-(4-(4-(4-quinazolyl)piperazin-1-yl)butyl)-1,4-benzoxazepin-5-one]: the concentration for half-maximal inhibition (IC50) was 1390 nM at dopamine D2 receptor and 3.8 nM in experiment [1] (setting [2]). Also, in experiment [1], the D2/5-HT1A was 366.

`Cc1ccc2c(c1)C(=O)N(CCCCN1CCN(c3ncccn3)CC1)C(Cl)=CO2` [Example 49, 3-chloro-4,5-dihydro-7-methyl-4-(4-(4-(2-pyrimidinyl)-piperazin-1-yl)butyl)-1,4-benzoxazepin-5-one]: the 50% inhibitory concentration (IC50) at dopamine D2 receptor is 405 nM; in experiment [1] (setting [2]), 0.88 nM. Also, the D2/5-HT1A in experiment [1] was found to be 460.

For `CC1=COc2ccccc2C(=O)N1CCCCN1CC=C(c2ncccn2)CC1` [Example 53, 4,5-dihydro-3-methyl-4-(4-(4-(2-pyrimidinyl)-1,2,5,6-tetrahydropyridin-1-yl)butyl)-1,4-benzoxazepin-5-one], on dopamine D2 receptor, the concentration for half-maximal inhibition (IC50) came to 979 nM. For the same compound, in experiment [1], the IC50 was determined as 11 nM and the D2/5-HT1A was 89.

On to `CC1=COc2ccccc2C(=O)N1CCCCN1CCC(c2ncccn2)CC1` [Example 54, 4,5-dihydro-3-methyl-4-(4-(4-(2-pyrimidinyl)piperidin-1-yl)butyl)-1,4-benzoxazepin-5-one], for which the minimal effective dose in the experiment on male Wistar rats was determined as 10 mg/kg.

Take `CC1=COc2ccc(F)cc2C(=O)N1CCCCN1CC=C(c2ncccn2)CC1` [Example 55, 4,5-dihydro-7-fluoro-3-methyl-4-(4-(4-(2-pyrimidinyl)-1,2,5,6-tetrahydropyridin-1-yl)butyl)-1,4-benzoxazepin-5-one]: the IC50 on dopamine D2 receptor was 1250 nM; in experiment [1], 13 nM. Further, the D2/5-HT1A in experiment [1] turned out to be 96.

With `O=C1c2ccccc2OC=C(Cl)N1CCCCN1CCC(c2ncccn2)CC1` [Example 57, 3-chloro-4,5-dihydro-4-(4-(4-(2-pyrimidinyl)piperidin-1-yl)butyl)-1,4-benzoxazepin-5-one], the figures for the 50% inhibitory concentration (IC50) (at dopamine D2 receptor; in experiment [1] (setting [2])) were 1800 nM and 5.81 nM, respectively. In experiment [1], the D2/5-HT1A is listed as 310.

Regarding `O=C1c2ccc(Cl)cc2OC=C(Cl)N1CCCCN1CC=C(c2ncccn2)CC1` [Example 59, 3,8-dichloro-4,5-dihydro-4-(4-(4-(2-pyrimidinyl)-1,2,5,6-tetrahydropyridin-1-yl)butyl)-1,4-benzoxazepin-5-one], the 50% inhibitory concentration (IC50) on dopamine D2 receptor came out at 341 nM. In experiment [1], the half-maximal inhibitory concentration (IC50) worked out at 0.65 nM and the D2/5-HT1A stood at 525. Further, the minimal effective dose in the experiment on Wistar male rats is 1 mg/kg.

`O=C1c2ccc(Cl)cc2OC=C(Cl)N1CCCCN1CCC(c2ncccn2)CC1` [Example 60, 3,8-dichloro-4,5-dihydro-4-(4-(4-(2-pyrimidinyl)piperidin-1-yl)butyl)-1,4-benzoxazepin-5-one]: the values for the half-maximal inhibitory concentration (IC50) (on dopamine D2 receptor; in experiment [1] (setting [2])) were 1280 nM and 1.11 nM, respectively. Besides, the D2/5-HT1A in experiment [1] is 1153. Further, the minimal effective dose in the experiment on Wistar male rats came to 1 mg/kg.

On to `COc1ccc2c(c1)OC=C(Cl)N(CCCCN1CC=C(c3ncccn3)CC1)C2=O` [Example 61, 3-chloro-4,5-dihydro-8-methoxy-4-(4-(4-(2-pyrimdinyl)-1,2,5,6-tetrahydropyridin-1-yl)butyl)-1,4-benzoxazepin-5-one], for which the IC50 at dopamine D2 receptor turned out to be 256 nM. For the same compound, in experiment [1], the half-maximal inhibitory concentration (IC50) was 0.68 nM and the D2/5-HT1A was determined as 376. For the same compound, the minimal effective dose with Wistar male rats came out at 1 mg/kg.

The compound `O=C1c2ccc(Cl)cc2OC=C(Cl)N1CCCCN1CC=C(c2ccccn2)CC1` [Example 66, 3,8-dichloro-4,5-dihydro-4-(4-(4-(2-pyridyl)-1,2,5,6-tetrahydropyridin-1-yl)butyl)-1,4-benzoxazepin-5-one] displayed a 50% inhibitory concentration (IC50) on dopamine D2 receptor of 128 nM. Moreover, in experiment [1], the IC50 came to 0.58 nM and the D2/5-HT1A stood at 221.

Consider `O=C1c2ccc(Cl)cc2OC=C(Cl)N1CCCCN1CCC(c2ccccn2)CC1` [Example 67, 3,8-dichloro-4,5-dihydro-4-(4-(4-(2-pyridyl)piperidin-1-yl)butyl)-1,4-benzoxazepin-5-one], for which the values for the IC50 (on dopamine D2 receptor; in experiment [1] (setting [2])) were 359 nM and 0.44 nM, respectively. Also, in experiment [1], the D2/5-HT1A turned out to be 816.

`CC1=COc2ccc(C)cc2C(=O)N1CCCCN1CC=C(c2ccccn2)CC1` [Example 74, 4,5-dihydro-3,7-dimethyl-4-(4-(4-(2-pyridyl)-1,2,5,6-tetrahydropyridin-1-yl)butyl)-1,4-benzoxazepin-5-one] registered a 50% inhibitory concentration (IC50) at dopamine D2 receptor of 338 nM. In experiment [1], the IC50 amounted to 4.41 nM and the D2/5-HT1A came out at 77.

Regarding `CC1=COc2ccccc2C(=O)N1CCCCN1CC=C(c2ccccn2)CC1` [Example 84, 4,5-dihydro-3-methyl-4-(4-(4-(2-pyridyl)-1,2,5,6-tetrahydropyridin-1-yl)butyl)-1,4-benzoxazepin-5-one], the minimal effective dose with Wistar male rats was determined as 0.3 mg/kg.

In general, IC50 refers to the point on the concentration scale where inhibition reaches its midpoint.
